The text below walks through data of ChEMBL document CHEMBL1201862, “PubChem BioAssay data set” (2004).

Some test systems named below: LOX IMVI; UO-31; COLO 205; NCI/ADR-RES; HL-60; HOP-92; HOP-62; IGROV-1; SK-OV-3; OVCAR-4; RXF 393; A549; OVCAR-8; HCC 2998; SK-MEL-5; HT-29; NCI-H226; TK-10; M14; SR.
Common to all, as to assay: NCI tumour cell line growth inhibition, 48 h

Structures are written as SMILES.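 96-well plates; 48 h exposure; 5 concentrations. Endpoints by linear interpolation between flanking doses. Not reached: highest tested concentration assigned. Here, GI50 denotes the concentration required for 50% inhibition of growth.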 The source made the active and inactive calls. Cut-off read from the data, not from the text of the source: active = GI50 up to about 1.1 µM and inactive = higher.

`COc1cc[n+](C)cc1`: the GI50 in the experiment on LOX IMVI, in the experiment with UO-31, in the experiment with COLO 205, with NCI/ADR-RES, with HL-60 and with HOP-92 was > 100 µM (inactive) each time. Also, the GI50 in the experiment with HOP-62, with IGROV-1, in the experiment on SK-OV-3, in the experiment with OVCAR-4, in the experiment on RXF 393 and in the experiment with A549 was > 100 µM (inactive) in each case. Also, the GI50 with OVCAR-8, in the experiment with HCC 2998, with SK-MEL-5, in the experiment on HT-29 and in the experiment on NCI-H226 was > 100 µM (inactive) each time.
As for `NC(=S)NS(=O)(=O)c1ccc(Cl)cc1Cl`, the GI50 in the experiment on LOX IMVI, in the experiment on UO-31, in the experiment on TK-10, with COLO 205, in the experiment on NCI/ADR-RES and in the experiment with HL-60 was > 100 µM (inactive) each time. In addition, the GI50 with HOP-92, in the experiment with HOP-62, in the experiment with IGROV-1, with SK-OV-3, with OVCAR-4 and in the experiment on RXF 393 was > 100 µM (inactive) each time. Moreover, the GI50 in the experiment on M14, in the experiment with A549, in the experiment with OVCAR-8, with HCC 2998, with SK-MEL-5 and in the experiment with HT-29 was > 100 µM (inactive) in each case. Also, the GI50 with NCI-H226 was > 100 µM (inactive).
For `CCOC(=O)CCC(NC(=O)c1ccc(Nc2nc3cc(C(F)(F)F)ccc3nc2C(=O)OCC)cc1)C(=O)OCC` (centres undefined), the GI50 is 16.8 µM (inactive) in the experiment on LOX IMVI; 11.6 µM (inactive) in the experiment with UO-31; 4.14 µM (inactive) in the experiment with COLO 205; 12.2 µM (inactive) with NCI/ADR-RES; > 100 µM (inactive) with HL-60; > 100 µM (inactive) in the experiment with SR. For the same compound, the GI50 with HOP-92 was 0.975 µM (active); with HOP-62 it was 14 µM (inactive); in the experiment with IGROV-1 it was 17.1 µM (inactive); in the experiment on OVCAR-4 it was 3.54 µM (inactive); in the experiment with M14 it was 4.51 µM (inactive); in the experiment on A549, 8.63 µM (inactive). Further, the GI50 was 5.45 µM (inactive) with OVCAR-8, 30.8 µM (inactive) in the experiment on HCC 2998, 23.9 µM (inactive) in the experiment on SK-MEL-5 and 4.18 µM (inactive) in the experiment with HT-29.
Regarding `O=c1cc(O)ccn1C1C=C(CO)C(O)C1O` (centres undefined), the GI50 in the experiment with LOX IMVI was 455 µM (inactive); in the experiment with UO-31, > 625 µM (inactive); with NCI/ADR-RES, > 625 µM (inactive); with HL-60 it was 183 µM (inactive); with HOP-92, 192 µM (inactive); in the experiment on HOP-62, > 625 µM (inactive). The GI50 with IGROV-1, in the experiment with SK-OV-3, in the experiment on OVCAR-4, in the experiment with RXF 393, in the experiment on A549 and with OVCAR-8 was > 625 µM (inactive) in each case. The GI50 in the experiment on HCC 2998, with SK-MEL-5, in the experiment on HT-29 and with NCI-H226 was > 625 µM (inactive) in each case.
In the case of `Nc1nccc2c1ncn2[C@H]1C[C@H](O)[C@@H](CO)O1`, the GI50 in the experiment with LOX IMVI, with UO-31, in the experiment with TK-10, in the experiment on COLO 205, in the experiment with NCI/ADR-RES and with SR was > 100 µM (inactive) each time. The GI50 with HOP-92, in the experiment with HOP-62, in the experiment on IGROV-1, in the experiment on SK-OV-3, with OVCAR-4 and with RXF 393 was > 100 µM (inactive) each time. Moreover, the GI50 in the experiment with M14, in the experiment with OVCAR-8, in the experiment with HCC 2998, in the experiment with SK-MEL-5, in the experiment on HT-29 and in the experiment with NCI-H226 was > 100 µM (inactive) each time.
In the case of `O=C1c2ccccc2C(=O)c2c(OCCOCCO)cccc21`, the GI50 in the experiment with LOX IMVI was 50.2 µM (inactive); in the experiment with UO-31, 38.9 µM (inactive); in the experiment with TK-10, 53.6 µM (inactive); in the experiment with COLO 205 it was > 100 µM (inactive); in the experiment on NCI/ADR-RES, > 100 µM (inactive); with HL-60 it was > 100 µM (inactive). The GI50 with SR is 66.7 µM (inactive); in the experiment on HOP-92 it was 12.6 µM (inactive); in the experiment on HOP-62, > 100 µM (inactive); in the experiment on IGROV-1, 45.5 µM (inactive); in the experiment on SK-OV-3, > 100 µM (inactive); in the experiment with OVCAR-4, 72.9 µM (inactive). The GI50 was 48.6 µM (inactive) in the experiment with RXF 393; > 100 µM (inactive) in the experiment with M14; > 100 µM (inactive) in the experiment on A549; 70.1 µM (inactive) in the experiment on OVCAR-8; 44.2 µM (inactive) with SK-MEL-5; 63.4 µM (inactive) in the experiment on HT-29.
Turning to `COC(=O)[C@@H](NC1(c2ccccc2)c2ccccc2-c2ccccc21)[C@@H](C(=O)OC)N(NC(=O)OCc1ccccc1)C(=O)OCc1ccccc1.COC(=O)[C@@H](NC1(c2ccccc2)c2ccccc2-c2ccccc21)[C@H](C(=O)OC)N(NC(=O)OCc1ccccc1)C(=O)OCc1ccccc1`, the GI50 in the experiment with LOX IMVI, in the experiment on UO-31, with TK-10, with COLO 205, in the experiment with NCI/ADR-RES and in the experiment with HL-60 was > 100 µM (inactive) in each case. For the same compound, the GI50 in the experiment on SR, in the experiment with HOP-92, in the experiment with HOP-62, with IGROV-1, with SK-OV-3 and in the experiment with OVCAR-4 was > 100 µM (inactive) in each case. Further, the GI50 was > 100 µM (inactive) in the experiment with RXF 393; > 100 µM (inactive) in the experiment on M14; > 100 µM (inactive) in the experiment with A549; > 100 µM (inactive) with OVCAR-8; 86.9 µM (inactive) with HCC 2998; > 100 µM (inactive) with SK-MEL-5. Also, the GI50 with HT-29 is > 100 µM (inactive).
Consider `COc1cc(-c2ccc(/N=N/c3c(S(=O)(=O)O)cc4cc(S(=O)(=O)O)cc(N)c4c3O)c(OC)c2)ccc1/N=N/c1c(S(=O)(=O)O)cc2cc(S(=O)(=O)O)cc(N)c2c1O`, for which the GI50 with LOX IMVI was > 90.6 µM (inactive); with UO-31, > 80.4 µM (inactive); in the experiment on COLO 205, > 100 µM (inactive); in the experiment with NCI/ADR-RES, > 100 µM (inactive); with HL-60 it was 29.9 µM (inactive); in the experiment with HOP-92 it was 34 µM (inactive). In addition, the GI50 is > 100 µM (inactive) with HOP-62; > 100 µM (inactive) in the experiment with IGROV-1; > 100 µM (inactive) in the experiment on SK-OV-3; > 57 µM (inactive) in the experiment on OVCAR-4; > 100 µM (inactive) in the experiment on RXF 393; > 77.4 µM (inactive) in the experiment with A549. Also, the GI50 in the experiment on OVCAR-8 was > 100 µM (inactive); in the experiment with HCC 2998, > 100 µM (inactive); with SK-MEL-5, > 100 µM (inactive); with HT-29, > 62.1 µM (inactive); in the experiment on NCI-H226 it was > 62.1 µM (inactive).
Regarding `COc1ccc(-c2cc(O)c3c(C)cc(C)nc3n2)cc1`, the GI50 with LOX IMVI was 27.4 µM (inactive); with UO-31, 38 µM (inactive); in the experiment with TK-10 it was 25.1 µM (inactive); with COLO 205, 20.8 µM (inactive); in the experiment on NCI/ADR-RES, 33.4 µM (inactive); with HL-60 it was 15.8 µM (inactive). In addition, the GI50 was 26.9 µM (inactive) in the experiment on HOP-92; 26.8 µM (inactive) with HOP-62; 23.3 µM (inactive) in the experiment with IGROV-1; > 100 µM (inactive) in the experiment with SK-OV-3; 26.4 µM (inactive) in the experiment with OVCAR-4; 49.7 µM (inactive) with RXF 393. Also, the GI50 is 35.3 µM (inactive) with M14; 55.3 µM (inactive) in the experiment with A549; 33.5 µM (inactive) with OVCAR-8; 43.2 µM (inactive) in the experiment on HCC 2998; 20.3 µM (inactive) in the experiment with HT-29; 35 µM (inactive) in the experiment on NCI-H226.
With `CCOP(=O)(OCC)C(Cc1ccc(OC)c(OC)c1)N=C(c1ccccc1)c1ccccc1` (centres undefined), the GI50 was 40.4 µM (inactive) in the experiment on UO-31; 40.8 µM (inactive) in the experiment on TK-10; 18.9 µM (inactive) in the experiment with COLO 205; 44.7 µM (inactive) in the experiment on NCI/ADR-RES; 31.3 µM (inactive) with HL-60; 6.84 µM (inactive) in the experiment on SR. In addition, the GI50 in the experiment on HOP-92 was 37.9 µM (inactive); in the experiment on IGROV-1, 45.2 µM (inactive); in the experiment on OVCAR-4, 81.7 µM (inactive); with RXF 393, 61.4 µM (inactive); with M14, 51.8 µM (inactive); with A549, 26.5 µM (inactive). The GI50 in the experiment with OVCAR-8 was 42.9 µM (inactive); in the experiment with HCC 2998, 24.6 µM (inactive); in the experiment on SK-MEL-5 it was 23.4 µM (inactive); with HT-29, 36.8 µM (inactive); with NCI-H226, 88.1 µM (inactive).
Take `COc1ccc(OC)c2c1C(=O)C(Cl)=C(N1CCN(CCOCCO)CC1)C2=O`: the GI50 in the experiment on UO-31 was 16.4 µM (inactive); in the experiment with TK-10, 19 µM (inactive); with COLO 205 it was > 10 µM (inactive); in the experiment with NCI/ADR-RES, 26.5 µM (inactive); with HL-60 it was 1.08 µM (active); in the experiment with SR, 3.21 µM (inactive). Moreover, the GI50 in the experiment on HOP-92 is 17.7 µM (inactive); with HOP-62, 5.07 µM (inactive); with IGROV-1 it was 7.31 µM (inactive); with SK-OV-3, 19.6 µM (inactive); in the experiment on OVCAR-4, 17.9 µM (inactive); in the experiment on RXF 393 it was 19 µM (inactive). Besides, the GI50 was 17.2 µM (inactive) in the experiment on M14; 20.5 µM (inactive) in the experiment on A549; 16.6 µM (inactive) in the experiment with OVCAR-8; 12.4 µM (inactive) with HCC 2998; 16.5 µM (inactive) with SK-MEL-5; 6 µM (inactive) with HT-29. Further, the GI50 in the experiment on NCI-H226 was 16.7 µM (inactive).
